Series [1] relates to Murine Lewis lung cancer cell line LLC tumors. Kind of series: Syngeneic murine Lewis lung cancer (LLC) model in C57BL/6 mice. The note with it: for TGI (Tumor Growth Inhibition): TGI=ΔT/ΔC×100%. In kind it is in vivo. As to the method:
All the procedures related to animal handling, care, and the treatment in the study were performed following guidelines approved by an Institutional Animal Care and Use Committee (IACUC) of Crown Bioscience, Inc. (Santa Clara, Calif., USA, a contract research organization we hired) based on the guidance of the Association for Assessment and Accreditation of Laboratory Animal Care (AAALAC). Animals were checked for any effects of tumor growth and drug treatment on normal behavior such as mobility, food and water consumption, body weight gain/loss (gross body weights were measured twice weekly), eye/hair matting, and any other abnormal effect. Death and observed clinical signs were recorded on the basis of the number of animals within each group. Individual animals with a tumor volume exceeding 3,000 mm^3 or animals of a group with a mean tumor volume exceeding 2,000 mm^3 were euthanized. In addition, animals showing signs of severe distress and/or pain, dropping body weight more than 20% from that at the start of treatment, or losing the capability of accessing adequate food or water were humanely sacrificed.
Tumor volume was measured twice weekly in two dimensions using a caliper and the volume was calculated with a formula of: V=0.5 a×b^2, where a and b are the long and short diameter (in mm) of a tumor, respectively. The tumor volume was then used for calculations of both TGI (Tumor Growth Inhibition) and TGD (Tumor Growth Delay). The TGI was determined by: TGI=ΔT/ΔC×100%, where ΔT was a difference between the mean tumor volume at a specified day of observation and that at the day treatment starts (day 1) for a drug treated group whereas ΔC was the same difference measured for the control group. The TGD was calculated as: TGD=T−C, where T was the time (in days) required for tumors in a drug treated group to reach a predetermined mean tumor volume and C the time (in days) in the control group to reach the same volume. A tumor weight was derived by equating 1,000 mm^3 in volume to 1,000 mg in weight. A net body weight was then derived by subtracting a tumor weight from a corresponding gross body weight with the tumor.
Summary statistics, including mean and the standard error of the mean (SEM), are provided for the tumor volume of each group at each time point. Statistical analysis of difference in tumor volume among groups was conducted on a data set either at the best therapeutic time point or at the final dosing day as indicated. The tumor volume data were log-transformed and evaluated using a one-way ANOVA followed by Tukey's test when significance was observed. All data were analyzed using SPSS 16.0 and p<0.05 was considered to be statistically significant.
Murine Lewis lung cancer cell line LLC (ATCC) was cultured as described for LNCaP in Example 1 except DMEM, instead of RPMI-1640, medium being used. Each female C57BL/6 mice, 6 to 8 weeks of age, was inoculated with 3×10^5 LLC cells in 0.1 ml of PBS for tumor development. ITE treatment was started when a mean tumor volume reached 80 to 120 mm^3. All the other materials and methodologies were the same as that described in Example 1.

In series [2] the test system is Siha (human cervical cancer) xenografts. Kind of series: Siha xenograft growth inhibition. The note with it: ITE 100-200 mg/kg i.p. once daily. In kind it is in vivo. As to the method:
All the procedures related to animal handling, care, and the treatment in the study were performed following guidelines of KeyGen Biotechn Co., Ltd. (Nanjing, China), a contract research organization we hired, based on the guidance of the Association for Assessment and Accreditation of Laboratory Animal Care (AAALAC). Animals were checked for any effects of tumor growth and drug treatment on normal behavior such as mobility, food and water consumption, body weight gain/loss (bodyweights were measured every two days), eye/hair matting, and any other abnormal effect. Death and observed clinical signs were recorded. Individual animals with a tumor volume exceeding 3,000 mm^3 or animals of a group with a mean tumor volume exceeding 2,000 mm^3 were euthanized. In addition, animals showing signs of severe distress and/or pain or losing the capability of accessing adequate food or water were humanely sacrificed.
Cell lines HCT116, Siha, MFC were cultured in DMEM medium (high glucose) supplemented with 10% fetal bovine serum (FBS), SW116 and T24 in RPMI-1640 medium with 10% FBS, M14 and A375 in DMEM medium (high glucose) with 10% calf serum (CS), SGC7901 and Ketr-3 in RPMI-1640 medium with 10% CS, and CFPAC-1 in IMDM medium with 10% FBS. All of the cells were cultured, in the presence of 100 U/ml penicillin and 100 μg/ml streptomycin, at 37° C. in an atmosphere of 5% CO2 in air. […] The cells growing in an exponential phase were harvested and counted for tumor inoculation. Cell lines 5180 and U14 were maintained in ascites (peritoneal cavity fluid) of mice and were harvested and counted for tumor inoculation. […]
Tumor volume was measured every two days in two dimensions using a caliper and the volume was calculated with a formula of: V=0.5 a×b^2, where a and b are the long and short diameter (in mm) of a tumor, respectively. […] The TGD was calculated as: TGD=T−C, where T was the time (in days) required for tumors in a drug treated group to reach a predetermined mean tumor volume and C the time (in days) in the control group to reach the same volume. […]

As to `COC(=O)c1csc(C(=O)c2c[nH]c3ccccc23)n1` [ITE, 2-(1′H-indole-3′-carbonyl)-thiazole-4-carboxylic acid methyl ester], the “TGI (Tumor Growth Inhibition)” value in series [1] (20 mg/kg b.w. i.p. once daily, day 15) came to 65%; in series [1] (80 mg/kg b.w. i.p. once daily, day 20), 42%. Also, the “tolerability by body weight change monitoring” value in series [1] (80 mg/kg b.w. i.p. once daily) is given as “tolerated well”. Besides, in series [1] (80 mg/kg b.w. i.p. once daily for 28 days, stayed tumor free for one more month of observation), the “tumor elimination in one mouse of the ITE group (mouse No. 33)” value is given as “its tumor was no longer palpable at day 13”. In series [1] (80 mg/kg b.w. i.p. once daily, at a tumor volume of 1000 mm^3), the “TGD (Tumor Growth Delay)” value is 7 days. Also, the TGD in series [2] (TGD at Vol. 1,000) is given as 7 days. Moreover, the “TGI (%)” value in series [2] (TGI at day 24, TGI=(1−ΔT/ΔC)×100%) is 53%. In addition, the “Weight Loss” value in series [2] (end of therapy relative to beginning) was found to be 19%.

Source of the values: patent US10632106B2, “Methods of cancer treatment with 2-(1′H-Indole-3′-carbonyl)-thiazole-4-carboxylic acid methyl ester” (Ariagen, Inc., priority 2009, dated 2020).
